Results as given in patent publication US20240116947A1, “PYRIDO OXAZINE DERIVATIVES AS ALK5 INHIBITORS” (CHIESI FARMACEUTICI S.P.A., priority 2020, published 2024).
pIC50: −log10 of the molar value.

Target: human ALK5 (Homo sapiens (Human), UniProt P36897)
Test: ADP-GLO Kinases assay, inhibition of ALK5 enzymatic activity
Assay type: biochemical
Settings: Table 4; potency bins; purified recombinant human ALK5, ADP-Glo, 25° C.; read-out: ALK5 IC50
Method: The enzymatic activity of compounds of the present invention was monitored measuring the formation of ADP using the ADP-GLO Kinases assay. Following the incubation of the purified enzyme, a substrate and ATP, the produced ADP was converted into ATP, which in turn was converted into light by Ultra-Glo Luciferase. The luminescent signal positively correlated with ADP amount and kinase activity. Briefly, the kinase reaction was performed by incubating 2.6 nM of the purified, commercially available human ALK5 (recombinant TGF β1 N-term GST-tagged, 80-end), a final concentration of TGFβ1 peptide 94.5 μM (Promega, T36-58) and ultra-pure ATP (Promega V915B). […] All reactions/incubations were performed at 25° C. Compound and ALK5 kinase were mixed and incubated for 15 mins. Reactions were initiated by addition of ATP at a final concentration in the assay of 0.83 μM. After an incubation of 150 min, the reaction was stopped, and ADP production detected with ADP-Glo kit according to manufacturer's indications. The assay was performed in 384-well format and was validated using a selection of reference compounds that was tested in 11 point concentration-response curve.

Chain of human ALK5 (P36897 80-503 limits assumed): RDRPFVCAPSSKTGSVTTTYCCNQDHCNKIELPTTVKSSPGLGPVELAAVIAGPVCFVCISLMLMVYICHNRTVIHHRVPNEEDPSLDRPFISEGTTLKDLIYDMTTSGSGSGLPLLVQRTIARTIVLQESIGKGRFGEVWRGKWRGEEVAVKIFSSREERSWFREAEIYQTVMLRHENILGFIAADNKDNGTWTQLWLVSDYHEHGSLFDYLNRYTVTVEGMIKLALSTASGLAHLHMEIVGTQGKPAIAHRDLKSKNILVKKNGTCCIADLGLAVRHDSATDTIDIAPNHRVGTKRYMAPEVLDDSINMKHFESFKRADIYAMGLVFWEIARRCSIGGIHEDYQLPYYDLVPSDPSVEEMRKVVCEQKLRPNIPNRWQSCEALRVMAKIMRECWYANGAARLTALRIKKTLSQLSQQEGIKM

| Structure (SMILES) | pIC50 |
| --- | --- |
| CN1CCN(CCC(=O)Nc2cc(N3CCOc4cnc(-c5cc(Cl)ccc5F)cc43)ccn2)CC1=O [Example 22, N-{4-[7-(5-chloro-2-fluorophenyl)-1H,2H,3H-pyrido[3,4-b][1,4]oxazin-1-yl]pyridin-2-yl}-3-(4-methyl-3-oxopiperazin-1-yl)propanamide] | > 9.00 |
| Fc1ccc(Cl)cc1-c1cc2c(cn1)OCCN2c1ccnc2[nH]cnc12 [Example 17, 7-(5-chloro-2-fluorophenyl)-1-{3H-imidazo[4,5-b]pyridin-7-yl}-1H,2H,3H-pyrido[3,4-b][1,4]oxazine] | 8.00 to 8.30 |
| O=C(CCN(CCO)CCO)Nc1cc(N2CCOc3cnc(-c4cc(Cl)ccc4F)cc32)ccn1 [Example 18, 3-[bis(2-hydroxyethyl)amino]-N-{4-[7-(5-chloro-2-fluorophenyl)-1H,2H,3H-pyrido[3,4-b][1,4]oxazin-1-yl]pyridin-2-yl}propanamide] | > 9.00 |
| CN1CCN(CCC(=O)Nc2cc(N3CCOc4c3cc(-c3cc(Cl)ccc3F)nc4C(F)(F)F)ccn2)CC1 [Example 56] | 8.00 to 8.30 |
| CN1CC2(C1)CN(CC(=O)Nc1cc(N3CCOc4cnc(-c5cc(Cl)ccc5F)cc43)ccn1)C2 [Example 53, N-{4-[7-(5-chloro-2-fluorophenyl)-1H,2H,3H-pyrido[3,4-b][1,4]oxazin-1-yl]pyridin-2-yl}-2-{6-methyl-2,6-diazaspiro[3.3]heptan-2-yl}acetamide] | > 9.00 |
| Nc1cc(N2CCOc3cnc(-c4cc(C5CC5)ccc4F)cc32)ccn1 [Example 12, 4-[7-(5-cyclopropyl-2-fluorophenyl)-1H,2H,3H-pyrido[3,4-b][1,4]oxazin-1-yl]pyridin-2-amine] | 8.30 to 9.00 |
| COC(=O)C1CN(C)CCN1CCC(=O)Nc1cc(N2CCOc3cnc(-c4cc(Cl)ccc4F)cc32)ccn1 (centres unmarked) [Example 49, Methyl 1-[2-({4-[7-(5-chloro-2-fluorophenyl)-1H,2H,3H-pyrido[3,4-b][1,4]oxazin-1-yl]pyridin-2-yl}carbamoyl)ethyl]-4-methylpiperazine-2-carboxylate] | > 9.00 |
| Fc1ccc(Cl)cc1-c1cc2c(cn1)OCCN2c1ccnc2[nH]ncc12 [Example 15, 7-(5-chloro-2-fluorophenyl)-1-{1H-pyrazolo[3,4-b]pyridin-4-yl}-1H,2H,3H-pyrido[3,4-b][1,4]oxazine] | 8.30 to 9.00 |
| CN1CCN(CCC(=O)Nc2cc(N3CCOc4cnc(-c5cc(Cl)ccc5F)cc43)ccn2)CC1 [Example 14, N-{4-[7-(5-chloro-2-fluorophenyl)-1H,2H,3H-pyrido[3,4-b][1,4]oxazin-1-yl]pyridin-2-yl}-3-(4-methylpiperazin-1-yl)propanamide] | > 9.00 |
| CN1CCN(CCC(=O)Nc2cc(N3CCOc4cnc(-c5cc(C6CC6)ccc5F)cc43)ccn2)CC1 [Example 33, N-{4-[7-(5-cyclopropyl-2-fluorophenyl)-1H,2H,3H-pyrido[3,4-b][1,4]oxazin-1-yl]pyridin-2-yl}-3-(4-methylpiperazin-1-yl)propanamide] | > 9.00 |
| CN1CCN(CCC(=O)Nc2cc(N3CCOc4cnc(-c5nc(Cl)ccc5F)cc43)ccn2)CC1 [Example 38, N-{4-[7-(6-chloro-3-fluoropyridin-2-yl)-1H,2H,3H-pyrido[3,4-b][1,4]oxazin-1-yl]pyridin-2-yl}-3-(4-methylpiperazin-1-yl)propanamide] | > 9.00 |
| O=C(CCN1CCN(CCO)CC1)Nc1cc(N2CCOc3cnc(-c4cc(Cl)ccc4F)cc32)ccn1 [Example 28, N-{4-[7-(5-chloro-2-fluorophenyl)-1H,2H,3H-pyrido[3,4-b][1,4]oxazin-1-yl]pyridin-2-yl}-3-[4-(2-hydroxyethyl)piperazin-1-yl]propanamide] | > 9.00 |
| COC(=O)CC1CN(C)CCN1CCC(=O)Nc1cc(N2CCOc3cnc(-c4cc(Cl)ccc4F)cc32)ccn1 (centres unmarked) [Example 50, Methyl 2-{1-[2-({4-[7-(5-chloro-2-fluorophenyl)-1H,2H,3H-pyrido[3,4-b][1,4]oxazin-1-yl]pyridin-2-yl}carbamoyl)ethyl]-4-methylpiperazin-2-yl}acetate] | > 9.00 |
| Nc1cc(N2CCOc3cnc(-c4cc(Cl)ccc4F)cc32)ccn1 [Example 3, 4-[7-(5-chloro-2-fluorophenyl)-1H,2H,3H-pyrido[3,4-b][1,4]oxazin-1-yl]pyridin-2-amine] | 8.30 to 9.00 |
| Nc1nc(-c2cc(Cl)ccc2F)cc2c1OCCN2c1ccncc1 [Example 2, 7-(5-chloro-2-fluorophenyl)-1-(pyridin-4-yl)-1H,2H,3H-pyrido[3,4-b][1,4]oxazin-5-amine] | 8.00 to 8.30 |
| O=C(CCN1CCOCC1)Nc1cc(N2CCOc3cnc(-c4cc(Cl)ccc4F)cc32)ccn1 [Example 8, N-{4-[7-(5-chloro-2-fluorophenyl)-1H,2H,3H-pyrido[3,4-b][1,4]oxazin-1-yl]pyridin-2-yl}-3-(morpholin-4-yl)propanamide] | > 9.00 |
| CN1CCN(CC(=O)Nc2cc(N3CCOc4cnc(-c5cc(Cl)ccc5F)cc43)ccn2)CC1 [Example 43, N-{4-[7-(5-chloro-2-fluorophenyl)-1H,2H,3H-pyrido[3,4-b][1,4]oxazin-1-yl]pyridin-2-yl}-2-(4-methylpiperazin-1-yl)acetamide] | > 9.00 |
| COC(=O)CC1CN(CCC(=O)Nc2cc(N3CCOc4cnc(-c5cc(Cl)ccc5F)cc43)ccn2)CCN1C (centres unmarked) [Example 47, Methyl 2-{4-[2-({4-[7-(5-chloro-2-fluorophenyl)-1H,2H,3H-pyrido[3,4-b][1,4]oxazin-1-yl]pyridin-2-yl}carbamoyl)ethyl]-1-methylpiperazin-2-yl}acetate] | > 9.00 |
| COC(=O)C1CN(CCC(=O)Nc2cc(N3CCOc4cnc(-c5cc(Cl)ccc5F)cc43)ccn2)CCN1 (centres unmarked) [Example 46, Methyl 4-[2-({4-[7-(5-chloro-2-fluorophenyl)-1H,2H,3H-pyrido[3,4-b][1,4]oxazin-1-yl]pyridin-2-yl}carbamoyl)ethyl]piperazine-2-carboxylate] | > 9.00 |
| O=C(CCN1CCN(CCC(=O)Nc2cc(N3CCOc4cnc(-c5cc(Cl)ccc5F)cc43)ccn2)CC1)NCCO [Example 35, 3-{4-[2-({4-[7-(5-chloro-2-fluorophenyl)-1H,2H,3H-pyrido[3,4-b][1,4]oxazin-1-yl]pyridin-2-yl}carbamoyl)ethyl]piperazin-1-yl}-N-(2-hydroxyethyl)propanamide] | > 9.00 |
| O=C(CCN1CCNCC1)Nc1cc(N2CCOc3cnc(-c4cc(Cl)ccc4F)cc32)ccn1 [Example 10, N-{4-[7-(5-chloro-2-fluorophenyl)-1H,2H,3H-pyrido[3,4-b][1,4]oxazin-1-yl]pyridin-2-yl}-3-(piperazin-1-yl)propanamide] | > 9.00 |
| COC(=O)C1CN(CCC(=O)Nc2cc(N3CCOc4cnc(-c5cc(Cl)ccc5F)cc43)ccn2)CCN1C (centres unmarked) [Example 45, Methyl 4-[2-({4-[7-(5-chloro-2-fluorophenyl)-1H,2H,3H-pyrido[3,4-b][1,4]oxazin-1-yl]pyridin-2-yl}carbamoyl)ethyl]-1-methylpiperazine-2-carboxylate] | > 9.00 |
| COCCC(=O)Nc1cc(N2CCOc3cnc(-c4cc(Cl)ccc4F)cc32)ccn1 [Example 40, N-{4-[7-(5-chloro-2-fluorophenyl)-1H,2H,3H-pyrido[3,4-b][1,4]oxazin-1-yl]pyridin-2-yl}-3-methoxypropanamide] | 8.00 to 8.30 |
| CS(=O)(=O)NCCN1CCN(CCC(=O)Nc2cc(N3CCOc4cnc(-c5cc(Cl)ccc5F)cc43)ccn2)CC1 [Example 30, N-{4-[7-(5-chloro-2-fluorophenyl)-1H,2H,3H-pyrido[3,4-b][1,4]oxazin-1-yl]pyridin-2-yl}-3-[4-(2-methanesulfonamidoethyl)piperazin-1-yl]propanamide] | > 9.00 |

Same assay, conditions: Table 5; comparative examples, same in vitro assay; read-out: ALK5 IC50

| Structure (SMILES) | pIC50 |
| --- | --- |
| Fc1ccc(Cl)cc1-c1cc2c(cn1)OCCN2c1ccn[nH]1 [Example C1, 5-[7-(5-chloro-2-fluorophenyl)-1H,2H,3H-pyrido[3,4-b][1,4]oxazin-1-yl]-1H-pyrazole, reference compound] | 5.04 |

Same assay, conditions: statements in running text; read-out: potency (IC50) with respect to inhibitory activity on ALK5

| Structure (SMILES) | pIC50 |
| --- | --- |
| Fc1ccc(Cl)cc1-c1cc2c(cn1)OCCN2c1ccn[nH]1 [Example C1, 5-[7-(5-chloro-2-fluorophenyl)-1H,2H,3H-pyrido[3,4-b][1,4]oxazin-1-yl]-1H-pyrazole, reference compound] | < 5.05 |
